Literature values in patent publication US20230304031A1, “VECTORS AND METHODS FOR IN VIVO TRANSDUCTION” (Abintus Bio, Inc., priority 2020, published 2023).
Structures can show the parent of a compound that is named as a salt. Where two headings read alike, the source gives them in different places.

What was measured:
HSPC [1] = conditions: cited from earlier work; for HSPC mobilization (in words): as reported in the cited literature; for G-CSF-induced HSPC mobilization with NSAID: blocking of PGE2 production
CD34+ cells / HSPC = conditions: cited from earlier work; for CD34+ HSPC counts in the blood: 24 hours post-injection; for median yield of CD34+ cells: 5 µg/kg/day after chemotherapy, relapsed Hodgkin's disease; for increase in the harvest of CFU-GM over baseline: 5 µg/kg/day alone for 4 days
[2] = molecular target: phosphodiesterase type 5 (PDE5) (Homo sapiens, UniProt O76074); conditions: after oral administration; cited from earlier work
VLA-4 = conditions: after SCF stimulation; cited from earlier work
VLA-5 = conditions: after SCF stimulation; cited from earlier work
HSPC [3] = conditions: mice / murine models; cited from earlier work
HSCs = conditions: cited from earlier work
[4] = 10 breast cancer patients, 0.84 ± 0.1 µg/kg/day

## c1cc(CN2CCCNCCNCCCNCC2)ccc1CN1CCCNCCNCCCNCC1 [AMD3100, reference compound]
HSPC [1]
  HSPC mobilization (in words): rapidly mobilize HSPCs in various animal models
CD34+ cells / HSPC; subcutaneous 240 µg/kg
  CD34+ HSPC counts in the blood: approximately 10 cells/µL
  peak CD34+ HSPC counts in the blood: approximately 25 cells/µL
  time to peak CD34+ HSPC counts: 8 to 10 h
CD34+ cells / HSPC; subcutaneous 480 µg/kg
  CD34+ HSPC counts in the blood: approximately 20 cells/µL
  peak CD34+ HSPC counts in the blood: approximately 30 cells/µL
  time to peak CD34+ HSPC counts: 8 to 10 h

## O=C(O)[C@H](Cc1ccc(OC(=O)N2CCCC2)cc1)NC(=O)[C@@H]1CCCN1S(=O)(=O)c1ccccc1 [BOP, N-(benzenesulfonyl)-L-prolyl-L-O-(1-pyrrolidinylcarbonyl)tyrosine]
HSPC [1]
  HSPC mobilization (in words): rapidly mobilizes long-term multi-lineage reconstituting HSPC

## C[C@@H](NCCCc1cccc(C(F)(F)F)c1)c1cccc2ccccc12 [Cinacalcet]
HSPC [1]; pharmacological activation of CaR
  HSPC adhesion, migration and homing: increased adhesion of HSPCs to collagen I and fibronectin

## CCCCCCCCc1ccc(CCC(N)(CO)CO)cc1 [FTY720]
HSPC [1]
  HSPC mobilization (in words): decreases steady-state mobilization of HSPCs

## CCOCc1cc(OC)c(-c2ccc(C[C@H](NC(=O)c3c(F)cccc3F)C(=O)O)cc2)c(OC)c1 [Firategrast]
HSPC [1]
  HSPC mobilization (in words): disrupt HSPC retention in the postnatal hematopoietic niche

## CC(=O)N[C@@H](CS)C(=O)O [NAC, N-acetyl-L-cysteine]
HSPC [1]
  HSPC mobilization (in words): significantly abrogate UDP-glc-induced HSPC mobilization

## CCCc1nn(C)c2c(=O)[nH]c(-c3cc(S(=O)(=O)N4CCN(C)CC4)ccc3OCC)nc12 [Sildenafil citrate]
[2]
  time of peak activity: 2 h

## CC(=O)Oc1ccccc1C(=O)O [aspirin]
HSPC [1]
  G-CSF-induced HSPC mobilization with NSAID: doubled

## O=P1(N(CCCl)CCCl)NCCCO1 (centres unmarked) [cyclophosphamide, reference compound]
CD34+ cells / HSPC; doses of 4-7 g/m2
  CD34+ cell yields: ~3.62 × 10^6 cells/kg
CD34+ cells / HSPC; single dose of 4 g/m^2
  increase in the number of CFU-GM: up to 25 fold

## CC(C)Cc1ccc(C(C)C(=O)O)cc1 (centres unmarked) [ibuprofen]
HSPC [1]
  G-CSF-induced HSPC mobilization with NSAID: doubled

## COc1ccc2c(c1)c(CC(=O)O)c(C)n2C(=O)c1ccc(Cl)cc1 [indomethacin]
HSPC [1]
  G-CSF-induced HSPC mobilization with NSAID: doubled

## GM-CSF: granulocyte-macrophage colony stimulating factor [reference compound]
CD34+ cells / HSPC
  median yield of CD34+ cells: 5.6 × 10^6 CD34+ cells/kg
  increase in the harvest of CFU-GM over baseline: 33.7 fold
CD34+ cells / HSPC; 250 µg/m2 versus 125 µg/m2
  CFU-GM content of mobilized HSPC populations: superior yield
CD34+ cells / HSPC; 4-64 µg/kg/day continuous intravenous infusion up to 7 days, cancer patients
  increased HSPC in the peripheral blood: 4- to 18 fold

## Natalizumab: humanized monoclonal anti-VLA-4 antibody [reference compound]
CD34+ cells / HSPC; patients receiving infusion therapy for multiple sclerosis
  increase in circulating CD34+ cells: approximately 3 fold

## SCF: Stem Cell Factor
VLA-4
  increase of VLA-4 expression on CD34+ HSPC: approximately 2 fold
VLA-5
  increase of VLA-5 expression on CD34+ HSPC: 4- to 10 fold

## vedolizumab: humanized monoclonal antibody against the α4β7 integrin
HSPC [3]
  HSPC mobilization (in words): Reduction in plasma CXCL12 levels, accompanied by reduced HSPC egress

B1: G-CSF: hematopoietic growth factor (protein, UniProt P09919 31-207, looked up)
Granulocyte …: TPLGPASSLPQSFLLKCLEQVRKIQGDGAALQEKLVSECATYKLCHPEELVLLGHSLGIPWAPLSSCPSQALQLAGCLSQLHSGLFLYQGLLQALEGISPELGPTLDTLQLDVADFATTIWQQMEELGMAPALQPTQGAMPAFASAFQRRAGGVLVASHLQSFLEVSYRVLRHLAQP
CD34+ cells / HSPC
  median yield of CD34+ cells: 7.6 × 10^6 CD34+ cells/kg
  increase in the harvest of CFU-GM over baseline: 35.6 fold
CD34+ cells / HSPC; 5 µg/kg/day
  increase in CD34+ content of peripheral blood over baseline: sevenfold
CD34+ cells / HSPC; 10 µg/kg/day, 34 patients with Hodgkin's disease or NHL
  median harvest: 2.8 × 10^6 CD34+ cells/kg
CD34+ cells / HSPC; 10 µg/kg/day
  CD34+ HSPC yield: 11.32 × 10^7 /kg cells
  increase in CD34+ content of peripheral blood over baseline: 28 fold
CD34+ cells / HSPC; 12 µg/kg/day for 6 days, 17 patients with non-myeloid malignant disorders
  mean total harvested: 33 × 10^4 CFU-GM/kg
CD34+ cells / HSPC; 24 µg/kg/day
  CD34+ HSPC yield: 48.25 × 10^7 /kg cells
CD34+ cells / HSPC; [4]
  mean yield after the first leukapheresis: 0.77 × 10^6 CD34+ cells/kg
  mean yield after the second leukapheresis: 1.42 × 10^6 CD34+ cells/kg
CD34+ cells / HSPC; G-CSF 5 µg/kg/day for a further 5 days after 7 days of GM-CSF 5 µg/kg/day
  increase in HSPC over baseline: 80 fold
CD34+ cells / HSPC; by mobilization regimen
  mobilized PBPC cells expressing CD38: 88%
CD34+ cells / HSPC; healthy subjects, G-CSF 5 plus GM-CSF 5 µg/kg/day versus G-CSF 10 µg/kg/day alone
  mean harvest yield: 119 × 10^6 CD34+ cells/kg
HSCs; 1 day after 4 consecutive days of injections
  numbers of HSCs in the bloodstream: 3,400 HSCs/mouse
HSCs; regimens as worded
  HSC mobilization (comparison in words): not significantly better than the 2-h Viagra + AMD3100 mobilization protocol
